Among the test systems are NCI-H226 lung; UO-31 renal; T-47D breast; HCC-2998 colon; ACHN renal; SNB-19 CNS; NCI-H460 lung; UACC-62 melanoma; HL-60(TB) leukemia; OVCAR-5 ovarian.
Common to all, as to assay: NCI-60 cell line screen, 48 h

Values joined by “and” are separate entries in the source; they are usually repeats but may differ in a detail not shown here. Equal values may be shown once.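 Tested at 5 concentrations; 48 h exposure; 96-well plates; endpoints linearly interpolated, else capped at highest concentration. Abbreviation: GI50, concentration required for 50% inhibition of growth. At the TGI there is no net growth.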

Regarding `N/C(CSCCSC/C(N)=N/O)=N\O`, the TGI with NCI-H226 lung, in the assay with UO-31 renal, with T-47D breast, with HCC-2998 colon, in the assay with ACHN renal and in the assay with SNB-19 CNS was greater than 100 µM throughout. Moreover, the TGI in the assay on NCI-H460 lung, with UACC-62 melanoma, in the assay on HL-60(TB) leukemia and with OVCAR-5 ovarian was greater than 100 µM throughout.

With `COCC(=O)OC1CCn2c1nc1c2C(=O)C(C)=C(NC(C)=O)C1=O` (centres undefined), the GI50 in the assay with NCI-H226 lung was 9.33 µM; in the assay on T-47D breast, 1.03 µM; in the assay with UACC-62 melanoma, 2.08 µM; with OVCAR-5 ovarian, 5.91 µM. Moreover, the TGI was 23.5 µM with NCI-H226 lung; 26.2 µM in the assay with UO-31 renal; 5.51 µM and 2.68 µM with T-47D breast; 28.7 µM in the assay with HCC-2998 colon; 19.5 µM with ACHN renal; 40.5 µM with SNB-19 CNS. Further, the TGI with NCI-H460 lung is 38.2 µM; with UACC-62 melanoma it was 4.16 µM and 7.52 µM; in the assay with HL-60(TB) leukemia, 3.68 µM; with OVCAR-5 ovarian it was 21.6 µM.

In the case of `Cc1ncc([N+](=O)[O-])n1CCNC(=O)CCCCn1ccnc1[N+](=O)[O-]`, the TGI in the assay on NCI-H226 lung, in the assay on UO-31 renal, in the assay with T-47D breast, in the assay with HCC-2998 colon, in the assay on ACHN renal and in the assay on SNB-19 CNS was greater than 100 µM in each case. Also, the TGI with NCI-H460 lung, in the assay with UACC-62 melanoma, in the assay on HL-60(TB) leukemia and with OVCAR-5 ovarian was greater than 100 µM each time.

With `CC(C)(C)c1ccc2c(c1)OCc1n[nH]c(n1)COc1cc(C(C)(C)C)ccc1OCCOCCO2`, the TGI was 8.97 µM with NCI-H226 lung; 13.1 µM with UO-31 renal; 12.4 µM with T-47D breast; 13.9 µM in the assay with HCC-2998 colon; 14.8 µM with ACHN renal; 13.4 µM in the assay with SNB-19 CNS. Further, the TGI is 12.7 µM in the assay on NCI-H460 lung, 10.4 µM with UACC-62 melanoma, greater than 100 µM in the assay on HL-60(TB) leukemia and 22.6 µM with OVCAR-5 ovarian.

Regarding `O=S1(=O)c2ccccc2NC(=S)N1c1ccccc1`, the TGI in the assay on NCI-H226 lung was greater than 100 µM; in the assay with UO-31 renal it was greater than 100 µM; with T-47D breast it was greater than 100 µM; in the assay on HCC-2998 colon, 98.4 µM; with ACHN renal, greater than 100 µM; with SNB-19 CNS, greater than 100 µM. Further, the TGI in the assay on NCI-H460 lung, in the assay on UACC-62 melanoma, with HL-60(TB) leukemia and with OVCAR-5 ovarian was greater than 100 µM throughout.

Take `Cc1ccc2c(c1)C(=O)/C(=C\c1ccc(Cl)cc1)CCS2(=O)=O`: the TGI was determined as 14.2 µM with NCI-H226 lung; 9.02 µM in the assay with UO-31 renal; 9.4 µM in the assay on T-47D breast; 5.43 µM in the assay with HCC-2998 colon; 3.83 µM in the assay on ACHN renal; 6.82 µM in the assay with SNB-19 CNS. The TGI was 5.02 µM in the assay on NCI-H460 lung, 10.2 µM with UACC-62 melanoma, 5.26 µM in the assay on HL-60(TB) leukemia and greater than 42.5 µM with OVCAR-5 ovarian.

Take `CCOC(=O)Cc1nn2c(=O)cc(C)nc2s1`: the TGI in the assay with NCI-H226 lung, in the assay with UO-31 renal, with T-47D breast, with HCC-2998 colon, in the assay with ACHN renal and in the assay with SNB-19 CNS was greater than 100 µM in each case. The TGI with NCI-H460 lung, with UACC-62 melanoma, in the assay with HL-60(TB) leukemia and in the assay on OVCAR-5 ovarian was greater than 100 µM each time.

`COc1cc(/C=C/c2cc(=O)cc(/C=C/c3ccc(O)c(OC)c3)o2)ccc1O`: the TGI is 98.3 µM in the assay on NCI-H226 lung; greater than 100 µM with UO-31 renal; greater than 93.3 µM with T-47D breast; greater than 100 µM in the assay with HCC-2998 colon; greater than 100 µM in the assay with ACHN renal; greater than 100 µM with SNB-19 CNS. Moreover, the TGI in the assay with NCI-H460 lung, with UACC-62 melanoma, in the assay on HL-60(TB) leukemia and with OVCAR-5 ovarian was greater than 100 µM each time.

Consider `COC(=O)[C@H]1C=C[C@H](OC2OC(COC(C)=O)C(OC(C)=O)C(OC(C)=O)C2OC(C)=O)n2c(=O)n(-c3ccccc3)c(=O)n21` (some centres undefined), for which the TGI is 20.5 µM in the assay on NCI-H226 lung; 4.96 µM with UO-31 renal; greater than 28.1 µM in the assay with T-47D breast; 4.55 µM with HCC-2998 colon; 3.08 µM in the assay with ACHN renal; 31.3 µM in the assay with SNB-19 CNS. The TGI with NCI-H460 lung was 10.5 µM; with UACC-62 melanoma it was 3.01 µM; in the assay on HL-60(TB) leukemia, greater than 100 µM; in the assay with OVCAR-5 ovarian, 25.7 µM.

As to `O=CN(O)CC(=O)O`, the TGI in the assay on NCI-H226 lung, in the assay with UO-31 renal, with T-47D breast, in the assay with HCC-2998 colon, with ACHN renal and in the assay on SNB-19 CNS was greater than 100 µM in each case. In addition, the TGI in the assay on NCI-H460 lung, in the assay with UACC-62 melanoma, with HL-60(TB) leukemia and in the assay on OVCAR-5 ovarian was greater than 100 µM in each case.

As to `O=C(/C=C1\C[C@H]2C=Nc3ccccc3C(=O)N2C1)NCCCCCNC(=O)/C=C1\C[C@H]2C=Nc3ccccc3C(=O)N2C1`, the TGI in the assay on NCI-H226 lung is greater than 70.4 µM; in the assay on UO-31 renal it was 3.8 µM; in the assay on T-47D breast, 15.7 µM; in the assay with HCC-2998 colon, 32.7 µM; in the assay on ACHN renal, 3.88 µM; in the assay with SNB-19 CNS, 31.1 µM. Further, the TGI in the assay on NCI-H460 lung is 36.6 µM; in the assay with UACC-62 melanoma, 28.8 µM; with HL-60(TB) leukemia it was 6.13 µM; in the assay on OVCAR-5 ovarian it was 33.7 µM.

On to `CN1c2ccccc2C(=O)NC12CCN(CC1COc3ccccc3O1)CC2` (centres undefined), for which the TGI with NCI-H226 lung was 87.4 µM; in the assay on UO-31 renal, greater than 100 µM; in the assay with T-47D breast, 98.8 µM; in the assay with HCC-2998 colon it was greater than 100 µM; in the assay with ACHN renal, greater than 100 µM; in the assay with SNB-19 CNS it was greater than 100 µM. The TGI in the assay with NCI-H460 lung, in the assay with UACC-62 melanoma, with HL-60(TB) leukemia and in the assay on OVCAR-5 ovarian was greater than 100 µM throughout.

With `CCOC(=O)c1ccc(C(=O)/C(C(=O)OC(C)(C)C)=C2\CCCN2C)n1C`, the TGI with NCI-H226 lung, in the assay on UO-31 renal, in the assay with T-47D breast, in the assay on HCC-2998 colon, in the assay on ACHN renal and in the assay on SNB-19 CNS was greater than 100 µM in each case. Moreover, the TGI with NCI-H460 lung was greater than 100 µM; in the assay on UACC-62 melanoma it was greater than 100 µM; with HL-60(TB) leukemia, 70.5 µM; in the assay on OVCAR-5 ovarian it was greater than 100 µM.

Source of the values: PubChem BioAssay (NCI).
